Assay [1] has as its target T1, human tear lipocalin (TL) (Homo sapiens, UniProt P31025, C119L). Description: fluorescence titration, steady-state deconvoluted with time-resolved lifetimes. Type of assay: binding.
The target in assay [2] is human tear lipocalin (TL) mutant S61/S153 (Homo sapiens, UniProt P31025, C119L/C171S/C79S). Described as above. Type of assay: binding.
For assay [3], the target named is T1, human tear lipocalin (TL). Briefly: time-dependent fluorescence binding kinetics.
The target of assay [4] is human tear lipocalin (TL) mutant S61/S153 (Homo sapiens, UniProt P31025, C79S/C119L/C171S). Description: time-dependent fluorescence binding kinetics.
Sequence of human tear lipocalin (TL) mutant S61/S153 (Homo sapiens, UniProt P31025, C79S/C119L/C171S) (P31025 19-176 C79S/C119L/C171S): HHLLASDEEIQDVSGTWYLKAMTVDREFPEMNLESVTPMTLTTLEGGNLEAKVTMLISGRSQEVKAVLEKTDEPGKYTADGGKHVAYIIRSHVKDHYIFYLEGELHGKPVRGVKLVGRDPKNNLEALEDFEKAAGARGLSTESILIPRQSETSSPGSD

T1 sequence (P31025 19-176 C119L): as the sequence (P31025 19-176 C79S/C119L/C171S) above, with S61C, S153C counted along it
Sequence of human tear lipocalin (TL) mutant S61/S153 (Homo sapiens, UniProt P31025, C119L/C171S/C79S) (P31025 19-176 C79S/C119L/C171S): as the sequence (P31025 19-176 C79S/C119L/C171S) above

Broadly, the Kd is a measure of binding affinity in units of concentration. High values mean a looser complex, low ones a tighter complex. For `CN(C)c1cccc2c(S(=O)(=O)NCCCCCCCCCCC(=O)O)cccc12` [DAUDA, 11-((5-dimethylaminonaphthalene-1-sulfonyl)amino)undecanoic acid], the Kd in assay [1] is 2400 ± 300 nM; in assay [2] it was 2600 ± 300 nM.

Turning to `CCCCCCCCCCCCCCCC(=O)OC[C@H](COP(=O)([O-])OCC[N+](C)(C)C)OC(=O)CCCCCCCCCCCNc1ccc([N+](=O)[O-])c2nonc12` [NBD C12-HPC, 2-(12-(7-nitrobenz-2-oxa-1,3-diazol-4-yl)amino)dodecanoyl-1-hexadecanoyl-sn-glycero-3-phosphocholine], the “time-dependent fluorescence binding kinetics (time constant)” value turned out to be 32.2 ± 0.2 s in assay [3] and 22.2 ± 0.4 s in assay [4].

Take `C[C@H](CNc1ccc([N+](=O)[O-])c2nonc12)[C@H]1CC[C@H]2[C@@H]3CC=C4C[C@@H](O)CC[C@]4(C)[C@H]3CC[C@]12C` [NBD cholesterol, 22-(N-(7-nitrobenz-2-oxa-1,3-diazol-4-yl)amino)-23,24-bisnor-5-cholen-3\u03B2-ol]: the “time-dependent fluorescence binding kinetics (time constant)” value amounted to 11.8 ± 0.2 s in assay [3] and 3.3 ± 0.1 s in assay [4].

The values are drawn from article PMC3103136 (2011).
